# Measurements published in PubChem BioAssay (NCI).
#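 Protocol summary: plate cells (96-well), add compound at 5 concentrations, incubate 48 h, interpolate endpoints linearly. The concentration for full growth arrest is given as TGI.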
# Columns and labels:
# Experiment in all cases: inhibition of tumour cell growth, NCI panel, 48 h
# NCI/ADR-RES ovarian = test system: NCI/ADR-RES ovarian
# LOX IMVI melanoma = test system: LOX IMVI melanoma
# EKVX NSCLC = test system: EKVX NSCLC
# RPMI-8226 leukemia = test system: RPMI-8226 leukemia
# SK-MEL-2 melanoma = test system: SK-MEL-2 melanoma
# PC-3 prostate = test system: PC-3 prostate
# SK-OV-3 ovarian = test system: SK-OV-3 ovarian
# SN12C renal = test system: SN12C renal
# NCI-H23 lung = test system: NCI-H23 lung
# NCI-H522 lung = test system: NCI-H522 lung
# A498 renal = test system: A498 renal
# COLO 205 colon = test system: COLO 205 colon
# MDA-MB-435 = test system: MDA-MB-435
# OVCAR-4 ovarian = test system: OVCAR-4 ovarian
# MOLT-4 leukemia = test system: MOLT-4 leukemia
# ACHN renal = test system: ACHN renal
# OVCAR-8 ovarian = test system: OVCAR-8 ovarian
# IGROV1 ovarian = test system: IGROV1 ovarian
# MCF7 breast = test system: MCF7 breast
# RXF 393 renal = test system: RXF 393 renal
# SK-MEL-28 melanoma = test system: SK-MEL-28 melanoma
# UACC-257 melanoma = test system: UACC-257 melanoma
# DU-145 prostate = test system: DU-145 prostate
# SW-620 colon = test system: SW-620 colon
# MDA-MB-231 breast = test system: MDA-MB-231 breast
# KM12 colon = test system: KM12 colon
# HS 578T breast = test system: HS 578T breast
# HL-60(TB) leukemia = test system: HL-60(TB) leukemia
# K-562 leukemia = test system: K-562 leukemia
# HOP-62 NSCLC = test system: HOP-62 NSCLC
# OVCAR-5 ovarian = test system: OVCAR-5 ovarian
# SNB-75 CNS = test system: SNB-75 CNS
# NCI-H226 lung = test system: NCI-H226 lung
# TK-10 renal = test system: TK-10 renal
# HT29 colon = test system: HT29 colon
# T-47D breast = test system: T-47D breast
# MALME-3M melanoma = test system: MALME-3M melanoma
# U251 CNS = test system: U251 CNS
# NCI-H460 lung = test system: NCI-H460 lung
# MDA-N = test system: MDA-N
# CAKI-1 renal = test system: CAKI-1 renal
# SF-539 CNS = test system: SF-539 CNS
# SF-295 CNS = test system: SF-295 CNS
# HCC-2998 colon = test system: HCC-2998 colon
# M14 melanoma = test system: M14 melanoma
# HCT-15 colon = test system: HCT-15 colon
# 786-0 renal = test system: 786-0 renal
# UO-31 renal = test system: UO-31 renal
# OVCAR-3 ovarian = test system: OVCAR-3 ovarian
# SR leukemia = test system: SR leukemia
# SK-MEL-5 melanoma = test system: SK-MEL-5 melanoma
# CCRF-CEM leukemia = test system: CCRF-CEM leukemia
# SF-268 CNS = test system: SF-268 CNS
compound,measurement,setting,value
O=C(/C=C(\Nc1ccccc1O)c1ccccc1)C(=O)NC12CC3CC(CC(C3)C1)C2,TGI,NCI/ADR-RES ovarian,> 10 µM
same,TGI,LOX IMVI melanoma,> 10 µM
same,TGI,EKVX NSCLC,> 10 µM
same,TGI,RPMI-8226 leukemia,> 10 µM
same,TGI,SK-MEL-2 melanoma,> 10 µM
same,TGI,PC-3 prostate,> 10 µM
same,TGI,SK-OV-3 ovarian,> 10 µM
same,TGI,SN12C renal,> 10 µM
same,TGI,NCI-H23 lung,> 10 µM
same,TGI,NCI-H522 lung,> 10 µM
same,TGI,A498 renal,> 10 µM
same,TGI,COLO 205 colon,> 10 µM
same,TGI,MDA-MB-435,> 10 µM
same,TGI,OVCAR-4 ovarian,> 10 µM
same,TGI,MOLT-4 leukemia,> 10 µM
same,TGI,ACHN renal,> 10 µM
same,TGI,OVCAR-8 ovarian,> 10 µM
same,TGI,IGROV1 ovarian,> 10 µM
same,TGI,MCF7 breast,> 10 µM
same,TGI,RXF 393 renal,> 10 µM
same,TGI,SK-MEL-28 melanoma,> 10 µM
same,TGI,UACC-257 melanoma,> 10 µM
same,TGI,DU-145 prostate,> 10 µM
same,TGI,SW-620 colon,> 10 µM
same,TGI,MDA-MB-231 breast,> 10 µM
same,TGI,KM12 colon,> 10 µM
same,TGI,HS 578T breast,> 10 µM
same,TGI,HL-60(TB) leukemia,> 10 µM
same,TGI,K-562 leukemia,> 10 µM
same,TGI,HOP-62 NSCLC,> 10 µM
same,TGI,OVCAR-5 ovarian,> 10 µM
same,TGI,SNB-75 CNS,> 10 µM
same,TGI,NCI-H226 lung,> 10 µM
same,TGI,TK-10 renal,> 10 µM
same,TGI,HT29 colon,5.87 µM
same,TGI,T-47D breast,> 10 µM
same,TGI,MALME-3M melanoma,> 10 µM
same,TGI,U251 CNS,> 10 µM
same,TGI,NCI-H460 lung,> 10 µM
same,TGI,MDA-N,> 10 µM
same,TGI,CAKI-1 renal,> 10 µM
same,TGI,SF-539 CNS,> 10 µM
same,TGI,SF-295 CNS,> 10 µM
same,TGI,HCC-2998 colon,> 10 µM
same,TGI,M14 melanoma,> 10 µM
same,TGI,HCT-15 colon,> 10 µM
same,TGI,786-0 renal,> 10 µM
same,TGI,UO-31 renal,> 10 µM
same,TGI,OVCAR-3 ovarian,> 10 µM
same,TGI,SR leukemia,> 10 µM
same,TGI,SK-MEL-5 melanoma,> 10 µM
same,TGI,CCRF-CEM leukemia,> 10 µM
same,TGI,SF-268 CNS,> 10 µM
